Assay results reported in US6569895B1, “Compounds and methods for the treatment of cardiovascular, inflammatory and immune disorders” (Millennium Pharmaceuticals, Inc., priority 1995, dated 2003).
Several values for one entry are separate records, joined by “and”; a condition that tells them apart may be missing. Equal entries are not always repeated.

Experiments:
[1] = target: T1, Cytosol 5-Lipoxygenase of Rat Basophile Leukemia Cells (Rattus norvegicus, UniProt P12527); assay: Cytosol 5-lipoxygenase of rat basophilic leukemia cells (RBL-2H3 preparation); type: biochemical; settings: RBL-2H3 cytosol preparation, [14C]arachidonic acid
T1 construct: endogenous in cells; host or cells: RBL-2H3 cells (sonicate, 20,000 x g supernatant)
T1 sequence (P12527 1-673): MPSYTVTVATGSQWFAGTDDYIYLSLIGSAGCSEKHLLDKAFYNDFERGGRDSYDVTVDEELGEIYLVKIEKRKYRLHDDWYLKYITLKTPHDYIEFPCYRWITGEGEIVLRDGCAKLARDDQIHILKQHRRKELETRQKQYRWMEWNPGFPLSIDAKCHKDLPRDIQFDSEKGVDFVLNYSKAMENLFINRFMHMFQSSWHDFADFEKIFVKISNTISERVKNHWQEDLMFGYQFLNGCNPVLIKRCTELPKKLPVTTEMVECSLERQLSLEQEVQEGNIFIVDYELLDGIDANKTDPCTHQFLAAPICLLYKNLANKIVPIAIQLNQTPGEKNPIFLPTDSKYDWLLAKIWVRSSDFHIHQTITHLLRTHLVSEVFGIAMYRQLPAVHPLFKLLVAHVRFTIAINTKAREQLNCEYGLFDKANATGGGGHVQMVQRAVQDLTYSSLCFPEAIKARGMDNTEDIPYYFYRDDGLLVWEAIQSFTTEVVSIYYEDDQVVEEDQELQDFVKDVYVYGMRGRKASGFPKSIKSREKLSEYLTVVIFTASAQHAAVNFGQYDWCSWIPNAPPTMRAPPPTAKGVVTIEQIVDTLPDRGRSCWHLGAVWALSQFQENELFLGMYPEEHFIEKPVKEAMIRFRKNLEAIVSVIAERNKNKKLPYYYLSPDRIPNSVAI
Experimental: A wide variety of biological assays have also been used to evaluate the ability of a compound to inhibit the enzyme 5-lipoxygenase. For example, a cytosol 5-lipoxygenase of rat basophilic leukemia cells (RBL) has been widely utilized in studies on leukotriene biosynthesis. Compounds that inhibit 5-lipoxygenase decrease the levels of leukotrienes.
RBL-2H3 cells were grown to confluence in tissue culture flasks according to Carter et al. (J Pharm Exp Ther 256(3); 929-937, 1991). The cells were harvested and washed five times in calcium-and magnesium-free D-PBS. The cells were suspended at 2×10^7/M in 10 mM BES, 10 mM PIPES, pH 6.8, 1 mM EDTA and then sonicated. The sonicate was centrifuged at 20,000×g for 20 minutes at 4° C. The supernatant was then removed and stored in aliquots at −70° C.
The 5-LO activity in the RBL-2H3 preparation was determined as follows: 0.1 ml reactions consisting of 0.7 mM CaCl2, 100 mM NaCl, 1 mM EDTA, 10 mM BES, 10 MM PIPES, pH 7.4, varying concentrations of test compound dissolved in DMSO (7.5% DMSO final in assay), and an amount of the RBL-2H3 preparation that will convert 15% of the arachidonic acid substrate mixture to oxygenated products (determined experimentally for each RBL-2H3preparation), were incubated for 20 minutes at room temperature. The reaction was initiated by the addition of 5 μl of the arachidonic acid substrate mixture (0.944 nmol [^14C] arachidonic acid and 6.06 nmol arachidonic acid per assay in 0.028% NH4OH), and allowed to proceed for 5 minutes at 37° C. The reaction was terminated by the addition of 0.12 ml of a mixture of (i) 1.66 mg/ml triphenylphosphine in ethyl ether; (ii) methanol; and (iii) 0.2M citric acid (30:4:1); followed by centrifugation at 1000×g for 1 minute. […] The film was developed, scanned using a densitometer, and the peak areas of arachidonic acid and its product(s) are calculated. The percent inhibition was determined from the amount of [14C]-arachidonic acid converted into oxygenated products in samples containing test compound relative to that of control samples (no test compound).

[2] = tested on: 5-Lipoxygenase (LTB4 in whole blood); assay: Ex-vivo mouse whole blood 5-lipoxygenase evaluation (LTB4); type: in vivo; settings: 3 mg/k iv, 60 minutes
Experimental: (§1) CD-1 female mice, weighing 18-25 grams, and CD female rats, weighing 150-230 grams, were obtained from Charles River Labs. Test compounds were dissolved in 0.5% DMSO in 0.9% NaCl, for administration in mice (0.5 mg/ml) and in an alcohol vehicle (2% benzyl alcohol, 1% ethanol, 40% PEG 300, 10% propylene glycol, 47% of 5% dextrose and 3.5% pluronic F-68 in DiH2O) for use in rats (5 mg/ml). […] Heparinized whole blood (0.3 ml) was added into 1.5 ml Eppendorf centrifuge tube containing […] of 2 mM calcium ionophore A23187 (the final concentration of A23187 was […]). The sample was incubated for 30 minutes in a water bath at 37° C., and then centrifuged for 2 minutes. The plasma was diluted (×120) and assayed for LTB4 using EIA.

[3] = tested on: Leukotriene B4 production in ionophore-stimulated human whole blood; assay: Inhibition of leukotriene B4 production in ionophore-stimulated human whole blood; type: cell-based; settings: A23187 stimulated, LTB4 by EIA, read-out: HWB IC50
Experimental: Another biological assay used to evaluate the ability of a compound to inhibit the enzyme 5-lipoxygenase is based on the classic pharmacological model of inflammation induced by inhibition of LTB, from ionophore stimulated human whole blood.
Human blood was drawn into heparinized blood collection tubes, and aliquoted in 1 ml portions into 1.5 ml microfuge tubes. Test compound ([…]) of varying concentrations, dissolved in DMSO, was added to the blood sample and incubated for 15 minutes at 37° C. Calcium ionophore ([…], A23187) in DMSO was added to a final concentration of […], and the samples were incubated for 30 minutes at 37° C. Samples are then centrifuged at 1100×g (2500 rpm, H1000B rotor, in a Sorvall centrifuge) for 10 minutes at 4° C. Supernatant ([…]) was transferred into a 1.5 ml microfuge tube, […] of cold methanol added, and proteins precipitated on ice for 30 minutes. The samples were centrifuged at 110×g for 10 minutes at 4° C., and the supernatant assayed for LTB4 using a commercially available EIA kit (Cayman Chemical) according to manufacturer's specifications.

[4] = tested on: 5-Lipoxygenase (LTB4 in whole blood); assay: Ex-vivo rat whole blood 5-lipoxygenase evaluation (LTB4); type: in vivo; settings: 2 mg/k po
Experimental: as §1

[5] = target: T2, 5-lipoxygenase (Homo sapiens, UniProt P09917); settings: background statement; cited from earlier work
T2 sequence (P09917 1-674): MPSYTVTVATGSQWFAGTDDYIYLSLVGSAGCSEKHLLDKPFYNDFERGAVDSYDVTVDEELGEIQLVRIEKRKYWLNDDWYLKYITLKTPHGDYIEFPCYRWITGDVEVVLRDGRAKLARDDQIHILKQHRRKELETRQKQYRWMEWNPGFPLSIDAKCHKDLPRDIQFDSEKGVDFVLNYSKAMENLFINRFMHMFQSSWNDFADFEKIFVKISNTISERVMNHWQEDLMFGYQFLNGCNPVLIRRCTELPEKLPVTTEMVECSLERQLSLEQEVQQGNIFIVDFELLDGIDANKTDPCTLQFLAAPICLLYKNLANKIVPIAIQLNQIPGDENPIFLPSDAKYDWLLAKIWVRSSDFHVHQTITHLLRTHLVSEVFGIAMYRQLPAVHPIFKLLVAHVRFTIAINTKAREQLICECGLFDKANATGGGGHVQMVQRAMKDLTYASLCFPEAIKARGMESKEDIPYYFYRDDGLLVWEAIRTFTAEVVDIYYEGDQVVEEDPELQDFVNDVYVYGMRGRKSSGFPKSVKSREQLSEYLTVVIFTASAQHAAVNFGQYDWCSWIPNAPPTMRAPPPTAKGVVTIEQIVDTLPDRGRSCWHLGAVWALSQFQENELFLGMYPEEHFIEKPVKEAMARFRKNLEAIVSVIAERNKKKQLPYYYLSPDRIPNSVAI

[6] = target: PAF (Homo sapiens, UniProt P25105); settings: background statement; cited from earlier work
Chain of PAF (P25105 whole entry): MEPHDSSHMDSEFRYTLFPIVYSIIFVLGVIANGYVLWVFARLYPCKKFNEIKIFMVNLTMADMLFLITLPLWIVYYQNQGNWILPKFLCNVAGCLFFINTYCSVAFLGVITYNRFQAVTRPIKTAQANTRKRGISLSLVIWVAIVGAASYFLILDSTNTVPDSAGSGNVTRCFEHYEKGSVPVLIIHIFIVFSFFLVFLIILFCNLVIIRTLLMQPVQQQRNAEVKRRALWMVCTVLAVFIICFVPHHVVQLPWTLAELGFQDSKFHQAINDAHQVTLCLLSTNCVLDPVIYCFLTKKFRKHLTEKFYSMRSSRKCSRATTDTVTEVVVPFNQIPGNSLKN

SMILES | IC50 [1] | IC50 [3] [nM] | further results
NC(=O)N(O)CCC#C[C@H]1CC[C@@H](COc2ccc(F)cc2)O1 | – | 430 | ex vivo LTB4 % inh. ([4]; 60 minutes): 86%; ex vivo LTB4 % inh. ([4]; 360 minutes): 63%
COc1cc([C@H]2CC[C@H](c3cc(OC)c(OC)c(OC)c3)S2)cc(OC)c1OC (relative stereo) [L-653,150, trans-2,5-bis-(3,4,5-trimethoxyphenyl)tetrahydrothiophene] | – | – | inhibition of 5-lipoxygenase [5]: moderate inhibitor of 5-lipoxygenase; PAF antagonist activity [6]: potent PAF antagonist
NC(=O)N(O)CCCC[C@@H]1CCC(COc2ccc(F)cc2)O1 (single isomer, unassigned) | 950 nM | – | –

Further lines, with some results ahead:

IC50 [1] | IC50 [3] [nM] | SMILES | further results
1230 nM and 1400 nM | – | NC(=O)N(O)CCCC[C@@H]1CC[C@@H](COc2ccc(F)cc2)O1 | –
1380 nM and 1490 nM and 560 nM and 1600 nM and 720 nM | – | NC(=O)N(O)CCC#C[C@@H]1CC[C@@H](COc2ccc(F)cc2)O1 | ex vivo LTB4 % inh. [2]: 22%
– | 150 | NC(=O)N(O)CCC#C[C@H]1CC[C@H](COc2ccc(F)cc2)O1 | –
